Data as given in patent publication US9255098B2, “Xanthine derivative” (Chengdu Easton Pharmaceutical Co., Ltd., priority 2012, dated 2016).
Where a name gives a salt, the structure may show the parent alone.

How the values were obtained:
[1] = tested on: Type II spontaneous diabetic KKAy obese mice; assay: Impact on blood glucose in spontaneous diabetic mice; type: in vivo; conditions: for blood glucose at 30 min after glucose loaded / blood glucose at 60 min after glucose loaded / blood glucose at 120 min after glucose loaded: glucose 8 g/kg i.g 30 min after drug; for blood glucose at 30 min after glucose loaded / blood glucose at 60 min after glucose loaded / blood glucose at 120 min after glucose loaded / Fasting blood glucose: x ± SD; for Fasting blood glucose: fasted, before administration (baseline), group dosed 3 mg/kg i.g
Description: Type II spontaneous diabetic KKAy obese mice, 60 mice, 14 weeks old, half male and half female, purchased from Institute of Laboratory Animal Science, Chinese Academy of Medical Sciences (Qualified number: SCXK (Jing) 2009-0004). Animals were housed in the animal room after purchased, adaptively observed for at least three days, and used for assays […] they were qualified for the quarantine standard.
(§1) 2.1 Animals were fasted for at least 12 hours before starting the assay;
2.2 Fasting blood glucose values of the fasted mice were measured by ACCU-CHEK active glucose test strips, and the mice were randomly grouped according to Table 3. In addition, the C57BL/6J mice were used for the blank control group, while the type II spontaneous diabetic KKAy mice were used for the model group.
Animals in each group were administrated with corresponding investigational compounds according Table 3 by intragastric administration (i.g), then administrated with glucose (8 g/kg) respectively by intragastric administration at 30 min after administrating drugs, and the blood glucose values thereof were measured respectively at 30 min, 60 min and 120 min after administrating the glucose (glucose loaded).
(§2) Excel was used for statistics, experimental data were expressed as ( x±SD), and two-sided T-test method was used to statistically compare the experimental data among multiple groups.

normal KM mice = assay: Impact on glucose tolerance in normal mice; type: in vivo; conditions: for blood glucose at 30 min after glucose loaded / blood glucose at 60 min after glucose loaded / blood glucose at 120 min after glucose loaded / Fasting blood glucose: normal KM mice, x ± SD; for blood glucose at 30 min after glucose loaded / blood glucose at 60 min after glucose loaded / blood glucose at 120 min after glucose loaded / blood glucose value compared with the positive drug (Linagliptin) / blood glucose levels compared with the blank group: 3 mg/kg i.g; for blood glucose at 30 min after glucose loaded / blood glucose at 60 min after glucose loaded / blood glucose at 120 min after glucose loaded: glucose 8 g/kg i.g 30 min after drug; for Fasting blood glucose: fasted, before administration (baseline), group dosed 3 mg/kg i.g; for blood glucose value compared with the positive drug (Linagliptin) / blood glucose levels compared with the blank group: normal mice, at 30, 60 and 120 min after glucose loaded; for blood glucose levels compared with the blank group: P<0.01
Description: KM mice, 6 weeks old, weighing 18˜22 g, half male and half female, 60 mice, provided by Chengdu Dashuo Biological Technology Co., Ltd., Production license: SCXK (Chuan) 2008-24. Animals were housed in the animal room after purchased, adaptively observed for at least three days, and used for assays […] they were qualified for the quarantine standard.
as §1
2.2 Grouping: fasting blood glucose values of the fasted mice were measured, and the mice were randomly grouped according to Table 1, with no significant difference between the groups;
Animals in each group were administrated with corresponding investigational compounds according the Table 1 by intragastric administration (i.g), then administrated with glucose (8 g/kg) respectively by intragastric administration at 30 min after administrating drugs, and the blood glucose values thereof were measured respectively at 30 min, 60 min and 120 min after administrating the glucose (glucose loaded).
as §2

[2] = molecular target: Dipeptidyl peptidase IV (DPP-IV) (Homo sapiens (Human), UniProt P27487); assay: DPP-IV activity inhibitory assay in vitro; type: biochemical; conditions: substrate Gly-Pro-7-amido-4-methylcoumarin, fluorescence 355/460 nm
Sequence of Dipeptidyl peptidase IV (DPP-IV) (P27487 whole entry): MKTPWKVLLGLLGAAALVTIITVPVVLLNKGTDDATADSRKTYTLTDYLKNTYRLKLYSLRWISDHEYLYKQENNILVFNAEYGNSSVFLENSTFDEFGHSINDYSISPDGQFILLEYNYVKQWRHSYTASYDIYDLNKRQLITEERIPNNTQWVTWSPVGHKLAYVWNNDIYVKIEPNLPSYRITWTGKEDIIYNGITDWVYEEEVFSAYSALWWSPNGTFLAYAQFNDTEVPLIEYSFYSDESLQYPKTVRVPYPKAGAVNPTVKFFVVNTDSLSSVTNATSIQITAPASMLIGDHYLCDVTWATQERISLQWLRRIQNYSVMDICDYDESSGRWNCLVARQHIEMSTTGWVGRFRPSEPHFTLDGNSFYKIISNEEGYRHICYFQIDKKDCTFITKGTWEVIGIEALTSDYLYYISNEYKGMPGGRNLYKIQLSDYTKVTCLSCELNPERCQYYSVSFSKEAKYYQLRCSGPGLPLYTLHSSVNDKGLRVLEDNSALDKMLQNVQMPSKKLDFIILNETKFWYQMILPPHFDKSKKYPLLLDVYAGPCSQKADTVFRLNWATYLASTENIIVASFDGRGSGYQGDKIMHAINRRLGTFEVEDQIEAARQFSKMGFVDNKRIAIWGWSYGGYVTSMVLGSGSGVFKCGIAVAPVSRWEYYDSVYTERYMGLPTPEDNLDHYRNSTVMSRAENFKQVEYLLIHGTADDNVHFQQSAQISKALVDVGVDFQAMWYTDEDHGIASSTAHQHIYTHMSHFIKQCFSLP
Description: 2.1 Dipeptidyl peptidase IV (DPP-IV): SIGMA products, Item No. D4943-1VL.
2.3 DPP-IV buffer: containing 25 mM Hepes, 140 mM NaCl, 1% BSA, 80 mM MgCl2, of which pH was adjusted to 8.0.
2.5 Testing equipment: envision (PerkinElmer Company).
The variation of the product amount can be determined by the variation of fluorescence intensity, so as to reflect the activity level of the enzyme.
The dipeptidyl peptidase IV (DPP-IV), DPP-IV buffer and test samples were used to construct the reaction system of 200 μL, while the blank control (without enzyme and samples) and negative control (without samples) having the same volume were set up. […] Inhibition ratio was calculated according to the fluorescence intensity F value, inhibition ratio=[1−(Fsample−Fblank)/(Fnegative−Fblank)]×100. […] According to inhibition ratio, 4 Parameter Logistic Model in Xlfit software was applied to calculate IC50.

`CC#CCn1c(N2CCC[C@@H](N)C2)nc2c1c(=O)n(Cc1nc3cc(F)ccc3s1)c(=O)n2C` [Ex. 1, 1-[(5-fluoro-1,3-benzothiazol-2-yl)methyl]-3-methyl-7-(2-butyn-1-yl)-8-[(R)-3-amino-piperidin-1-yl]-xanthine] was tested. Which “blood glucose value compared with the positive drug Linagliptin at 30 min after glucose loaded” value ([1]; 3 mg/kg i.g) did it give?
Its value is “extremely significantly decreased”.

And the “blood glucose at 30 min after glucose loaded” value (“blood glucose at 30 min” for short) ([1]; 3 mg/kg i.g)?
Its value is 14.98 ± 1.53^▴▴★★ mmol/L.

And the “blood glucose at 60 min after glucose loaded” value (“blood glucose at 60 min” below) ([1]; 3 mg/kg i.g)?
Its value is 11.10 ± 2.45^▴▴★ mmol/L.

And the “blood glucose at 120 min after glucose loaded” value (shortened to “blood glucose at 120 min”) ([1]; 3 mg/kg i.g)?
The value was 9.97 ± 1.28 mmol/L.

What about the Fasting blood glucose [1] of the same molecule?
The Fasting blood glucose was 9.29 ± 0.71 mmol/L.

What about the “blood glucose at 30 min” value (normal KM mice) of the same molecule?
Its value is 15.02 ± 1.99 mmol/L.

And the “blood glucose at 60 min” value (normal KM mice)?
The value was 12.61 ± 1.98 mmol/L.

And the “blood glucose at 120 min” value (normal KM mice)?
The value was 8.79 ± 0.88 mmol/L.

What about the Fasting blood glucose (normal KM mice) of the same molecule?
Its Fasting blood glucose is 7.27 ± 0.74 mmol/L.

What about the “blood glucose value compared with the positive drug (Linagliptin)” value (normal KM mice) of the same molecule?
The value was “extremely significantly decreased”.

What about the “blood glucose levels compared with the blank group” value (normal KM mice) of the same molecule?
Its value is “extremely significantly decrease”.

For `CC#CCn1c(N2CCC[C@@H](N)C2)nc2c1c(=O)n(Cc1nc3ccccc3s1)c(=O)n2C` [Ex. 2, 1-[(1,3-benzothiazol-2-yl)methyl]-3-methyl-7-(2-butyn-1-yl)-8-[(R)-3-amino-piperidin-1-yl]-xanthine], which “blood glucose value compared with the positive drug Linagliptin at 30 min after glucose loaded” value ([1]; 3 mg/kg i.g) is on record?
The value was “significantly decreased”.

What about the “blood glucose at 30 min” value ([1]; 3 mg/kg i.g) of the same molecule?
The value was 15.59 ± 1.23^▴▴★ mmol/L.

What about the “blood glucose at 60 min” value ([1]; 3 mg/kg i.g) of the same molecule?
Its value is 11.41 ± 1.58^▴▴★ mmol/L.

What about the “blood glucose at 120 min” value ([1]; 3 mg/kg i.g) of the same molecule?
The value was 10.81 ± 1.37 mmol/L.

And the Fasting blood glucose [1]?
The Fasting blood glucose was 9.07 ± 0.67 mmol/L.

And the “blood glucose at 30 min” value (normal KM mice)?
Its value is 15.59 ± 2.04 mmol/L.

What about the “blood glucose at 60 min” value (normal KM mice) of the same molecule?
The value was 12.78 ± 1.97 mmol/L.

And the “blood glucose at 120 min” value (normal KM mice)?
Its value is 8.96 ± 1.16 mmol/L.

What about the Fasting blood glucose (normal KM mice) of the same molecule?
The Fasting blood glucose was 7.43 ± 1.32 mmol/L.

What about the “blood glucose value compared with the positive drug (Linagliptin)” value (normal KM mice) of the same molecule?
Its value is “significantly decreased”.

What about the “blood glucose levels compared with the blank group” value (normal KM mice) of the same molecule?
The value was “extremely significantly decrease”.

And the IC50 [2]?
The IC50 was 0.1 nM.

Which results are given for `CC#CCn1c(N2CCC[C@@H](N)C2)nc2c1c(=O)n(Cc1nc3cc(Cl)ccc3s1)c(=O)n2C` [Ex. 3, 1-[(5-chloro-1,3-benzothiazol-2-yl)methyl]-3-methyl-7-(2-butyn-1-yl)-8-[(R)-3-amino-piperidin-1-yl]-xanthine]?
blood glucose value compared with the positive drug Linagliptin at 30 min after glucose loaded ([1]; 3 mg/kg i.g): significantly decreased; blood glucose at 30 min after glucose loaded ([1]; 3 mg/kg i.g): 15.86 ± 1.04^▴▴★ mmol/L; blood glucose at 60 min after glucose loaded ([1]; 3 mg/kg i.g): 11.28 ± 1.67^▴▴★ mmol/L; blood glucose at 120 min after glucose loaded ([1]; 3 mg/kg i.g): 10.73 ± 1.46 mmol/L; Fasting blood glucose [1]: 9.15 ± 0.61 mmol/L; blood glucose at 30 min after glucose loaded (normal KM mice): 15.61 ± 1.10 mmol/L; blood glucose at 60 min after glucose loaded (normal KM mice): 13.49 ± 1.31 mmol/L; blood glucose at 120 min after glucose loaded (normal KM mice): 8.90 ± 1.26 mmol/L; Fasting blood glucose (normal KM mice): 7.19 ± 1.04 mmol/L; blood glucose value compared with the positive drug (Linagliptin) (normal KM mice): significantly decreased; blood glucose levels compared with the blank group (normal KM mice): extremely significantly decrease; IC50 [2]: 0.2 nM

With `CC#CCn1c(N2CCC[C@@H](N)C2)nc2c1c(=O)n(Cc1nc3cc(F)ccc3s1)c(=O)n2C.Cl` [Ex. 4, 1-[(5-fluoro-1,3-benzothiazol-2-yl)methyl]-3-methyl-7-(2-butyn-1-yl)-8-[(R)-3-amino-piperidin-1-yl]-xanthine hydrochloride] as the molecule, how does the “blood glucose value compared with the positive drug Linagliptin at 30 min after glucose loaded” value ([1]; 3 mg/kg i.g) read?
Its value is “significantly decreased”.

What about the “blood glucose at 30 min” value ([1]; 3 mg/kg i.g) of the same molecule?
The value was 15.60 ± 1.30^▴▴★ mmol/L.

What about the “blood glucose at 60 min” value ([1]; 3 mg/kg i.g) of the same molecule?
The value was 11.45 ± 1.60^▴▴★ mmol/L.

And the “blood glucose at 120 min” value ([1]; 3 mg/kg i.g)?
The value was 10.75 ± 1.20 mmol/L.

And the Fasting blood glucose [1]?
Its Fasting blood glucose is 9.17 ± 0.58 mmol/L.

What about the “blood glucose at 30 min” value (normal KM mice) of the same molecule?
Its value is 15.50 ± 1.94 mmol/L.

And the “blood glucose at 60 min” value (normal KM mice)?
Its value is 12.75 ± 1.43 mmol/L.

What about the “blood glucose at 120 min” value (normal KM mice) of the same molecule?
The value was 8.91 ± 0.98 mmol/L.

What about the Fasting blood glucose (normal KM mice) of the same molecule?
The Fasting blood glucose was 7.25 ± 0.98 mmol/L.

What about the “blood glucose value compared with the positive drug (Linagliptin)” value (normal KM mice) of the same molecule?
Its value is “significantly decreased”.

And the “blood glucose levels compared with the blank group” value (normal KM mice)?
The value was “extremely significantly decrease”.

`CC#CCn1c(N2CCC[C@@H](N)C2)nc2c1c(=O)n(Cc1nc3ccccc3s1)c(=O)n2C` [Ex. 5, 1-[(1,3-benzothiazol-2-yl)methyl]-3-methyl-7-(2-butyn-1-yl)-8-[(R)-3-amino-piperidin-1-yl]-xanthine hydrochloride] was tested. Which IC50 ([2]; hydrochloride) did it give?
Its IC50 is 0.15 nM.

For `CC#CCn1c(N2CCC[C@@H](N)C2)nc2c1c(=O)n(Cc1nc(C)c3ccccc3n1)c(=O)n2C` [Linagliptin, reference compound], which “blood glucose levels compared with the model group” value ([1]; 3 mg/kg i.g, at 30, 60 and 120 min after glucose loaded, P<0.01) is on record?
Its value is “extremely significantly decrease”.

What about the “blood glucose at 30 min” value ([1]; 3 mg/kg i.g) of the same molecule?
Its value is 17.14 ± 1.45 mmol/L.

What about the “blood glucose at 60 min” value ([1]; 3 mg/kg i.g) of the same molecule?
The value was 13.10 ± 1.38 mmol/L.

What about the “blood glucose at 120 min” value ([1]; 3 mg/kg i.g) of the same molecule?
Its value is 11.27 ± 1.43 mmol/L.

What about the Fasting blood glucose [1] of the same molecule?
Its Fasting blood glucose is 9.09 ± 0.53 mmol/L.

And the “blood glucose at 30 min” value (normal KM mice)?
Its value is 17.07 ± 1.83 mmol/L.

And the “blood glucose at 60 min” value (normal KM mice)?
Its value is 14.98 ± 1.66 mmol/L.

And the “blood glucose at 120 min” value (normal KM mice)?
Its value is 9.96 ± 0.89 mmol/L.

What about the Fasting blood glucose (normal KM mice) of the same molecule?
Its Fasting blood glucose is 7.13 ± 0.86 mmol/L.

What about the “blood glucose levels compared with the blank group” value (normal KM mice) of the same molecule?
The value was “extremely significantly decrease”.
